Assay results from ChEMBL document CHEMBL4346717, “1,2,4-Triazole-quinoline/quinolone hybrids as potential anti-bacterial agents” (Eur J Med Chem, 2019).
In brackets after ≈: the same amount, converted by molar mass.

Legend:
[1] = tested on: Mycolicibacterium smegmatis; test: Antibacterial activity against Mycobacterium smegmatis; format: functional
Staphylococcus aureus [2] = test: Antibacterial activity against Staphylococcus aureus; format: functional
[3] = tested on: Yersinia pseudotuberculosis; test: Antibacterial activity against Yersinia pseudotuberculosis; format: functional
Bacillus cereus [4] = test: Antibacterial activity against Bacillus cereus; format: functional
Escherichia coli [5] = test: Antibacterial activity against Escherichia coli; format: functional
Pseudomonas aeruginosa [6] = test: Antibacterial activity against Pseudomonas aeruginosa; format: functional
Enterococcus faecalis = test: Antibacterial activity against Enterococcus faecalis; format: functional
Escherichia coli [7] = test: Antibacterial activity against Escherichia coli after 3 to 7 days by cup diffusion method; format: functional; conditions: Escherichia coli; read-out: MIC
Pseudomonas aeruginosa [8] = test: Antibacterial activity against Pseudomonas aeruginosa assessed as zone of inhibition at 10 mg/ml after 3 to 7 days by cup diffusion method; format: functional; conditions: read-out: IZ
Mycolicibacterium phlei [9] = test: Antibacterial activity against Mycobacterium phlei clinical isolate assessed as zone of inhibition at 10 mg/ml after 3 to 7 days by cup diffusion method; format: functional; conditions: read-out: IZ
DNA gyrase = DNA gyrase (Escherichia coli, UniProt P0AES4+P0AES6); test: Inhibition of Escherichia coli DNA gyrase super-coiling activity using pBR322 DNA as substrate after 30 mins by fluorescence assay; format: protein-complex assay
Escherichia coli [10] = test: Antibacterial activity against Escherichia coli assessed as zone of inhibition at 10 mg/ml after 3 to 7 days by cup diffusion method; format: functional; conditions: read-out: IZ
Bacillus subtilis [11] = test: Antibacterial activity against Bacillus subtilis after 3 to 7 days by cup diffusion method; format: functional; conditions: Bacillus subtilis; read-out: MIC
Bacillus subtilis [12] = test: Antibacterial activity against Bacillus subtilis assessed as zone of inhibition at 10 mg/ml after 3 to 7 days by cup diffusion method; format: functional; conditions: read-out: IZ
[13] = tested on: Aggregatibacter actinomycetemcomitans; test: Antibacterial activity against Aggregatibacter actinomycetemcomitans ATCC 29524 after 3 to 7 days by cup diffusion method; format: functional; conditions: Aggregatibacter actinomycetemcomitans, ATCC 29524; read-out: MIC
[14] = tested on: Aggregatibacter actinomycetemcomitans; test: Antibacterial activity against Aggregatibacter actinomycetemcomitans ATCC 29524 assessed as zone of inhibition at 10 mg/ml after 3 to 7 days by cup diffusion method; format: functional; conditions: read-out: IZ
Pseudomonas aeruginosa [15] = test: Antibacterial activity against Pseudomonas aeruginosa after 3 to 7 days by cup diffusion method; format: functional; conditions: Pseudomonas aeruginosa; read-out: MIC
Staphylococcus aureus [16] = test: Antibacterial activity against Staphylococcus aureus assessed as zone of inhibition at 10 mg/ml after 3 to 7 days by cup diffusion method; format: functional; conditions: read-out: IZ
Mycolicibacterium phlei [17] = test: Antibacterial activity against Mycobacterium phlei clinical isolate after 3 to 7 days by cup diffusion method; format: functional; conditions: Mycolicibacterium phlei; read-out: MIC
Staphylococcus aureus [18] = test: Antibacterial activity against Staphylococcus aureus after 3 to 7 days by cup diffusion method; format: functional; conditions: Staphylococcus aureus; read-out: MIC
Aspergillus fumigatus = test: Antifungal activity against Aspergillus fumigatus assessed as zone of inhibition at 100 ug/ml; format: functional; conditions: read-out: IZ
Aspergillus niger = test: Antifungal activity against Aspergillus niger assessed as zone of inhibition at 100 ug/ml; format: functional; conditions: read-out: IZ
Staphylococcus aureus [19] = test: Antibacterial activity against methicillin-resistant Staphylococcus aureus; format: functional
Escherichia coli [20] = test: Antibacterial activity against multi drug-resistant Escherichia coli; format: functional
[21] = tested on: Staphylococcus epidermidis; test: Antibacterial activity against Staphylococcus epidermidis assessed as zone of inhibition at 100 ug/ml; conditions: read-out: IZ
Pseudomonas aeruginosa [22] = test: Antibacterial activity against Pseudomonas aeruginosa assessed as zone of inhibition at 100 ug/ml; conditions: read-out: IZ
Bacillus cereus [23] = test: Antibacterial activity against Bacillus cereus assessed as zone of inhibition at 100 ug/ml; format: functional; conditions: read-out: IZ
Escherichia coli [24] = test: Antibacterial activity against Escherichia coli assessed as zone of inhibition at 100 ug/ml; conditions: read-out: IZ

Structure (SMILES)	MIC [1] [µg/mL]	MIC (Staphylococcus aureus [2]) [µg/mL]	MIC [3] [µg/mL]	MIC (Bacillus cereus [4]) [µg/mL]	MIC (Escherichia coli [5]) [µg/mL]	MIC (Pseudomonas aeruginosa [6]) [µg/mL]	MIC (Enterococcus faecalis) [µg/mL]	also measured
CCn1cc(C(=O)O)c(=O)c2cc(F)c(N3CCN(Cn4nc(N5CCN(c6ccc([N+](=O)[O-])cc6)CC5)n(-c5ccc(F)cc5)c4=S)CC3)cc21	0.03 to 0.99 (≈ 0.041 to 1.35 µM)	0.03 to 0.99 (≈ 0.041 to 1.35 µM)	0.03 to 0.99 (≈ 0.041 to 1.35 µM)	0.03 to 0.99 (≈ 0.041 to 1.35 µM)	0.03 to 0.99 (≈ 0.041 to 1.35 µM)	0.03 to 0.99 (≈ 0.041 to 1.35 µM)	0.03 to 0.99 (≈ 0.041 to 1.35 µM)	
CCn1cc(C(=O)O)c(=O)c2cc(F)c(N3CCN(Cn4nc(N5CCN(c6ccc([N+](=O)[O-])cc6)CC5)n(-c5ccccc5)c4=O)CC3)cc21	0.03 to 0.99 (≈ 0.043 to 1.42 µM)	0.03 to 0.99 (≈ 0.043 to 1.42 µM)	0.03 to 0.99 (≈ 0.043 to 1.42 µM)	0.03 to 0.99 (≈ 0.043 to 1.42 µM)	0.03 to 0.99 (≈ 0.043 to 1.42 µM)	0.03 to 0.99 (≈ 0.043 to 1.42 µM)	0.03 to 0.99 (≈ 0.043 to 1.42 µM)	
CCn1cc(C(=O)O)c(=O)c2cc(F)c(N3CCN(Cn4nc(N5CCN(c6ccc([N+](=O)[O-])cc6)CC5)n(-c5ccccc5)c4=S)CC3)cc21	0.03 to 0.99 (≈ 0.042 to 1.39 µM)	0.03 to 0.99 (≈ 0.042 to 1.39 µM)	0.03 to 0.99 (≈ 0.042 to 1.39 µM)	0.03 to 0.99 (≈ 0.042 to 1.39 µM)	0.03 to 0.99 (≈ 0.042 to 1.39 µM)	0.03 to 0.99 (≈ 0.042 to 1.39 µM)	0.03 to 0.99 (≈ 0.042 to 1.39 µM)	
CCn1cc(-c2nc(NC(=O)c3ccccc3)n[nH]2)c(=O)c2cc(Br)c(C)nc21								MIC (Escherichia coli [7]): 3.68 to 6.3 µM (≈ 1.67 to 2.86 µg/mL); zone of inhibition at 10000 µg/mL (Pseudomonas aeruginosa [8]): 20 to 40 mm; zone of inhibition at 10000 µg/mL (Mycolicibacterium phlei [9]): 20 to 40 mm; IC50 (DNA gyrase): 4.28 µM; zone of inhibition at 10000 µg/mL (Escherichia coli [10]): 20 to 40 mm; MIC (Bacillus subtilis [11]): 3.68 to 6.3 µM (≈ 1.67 to 2.86 µg/mL); zone of inhibition at 10000 µg/mL (Bacillus subtilis [12]): 20 to 40 mm; MIC [13]: 3.68 to 6.3 µM (≈ 1.67 to 2.86 µg/mL); zone of inhibition at 10000 µg/mL [14]: 20 to 40 mm; MIC (Pseudomonas aeruginosa [15]): 3.68 to 6.3 µM (≈ 1.67 to 2.86 µg/mL); zone of inhibition at 10000 µg/mL (Staphylococcus aureus [16]): 20 to 40 mm; MIC (Mycolicibacterium phlei [17]): 3.68 to 6.3 µM (≈ 1.67 to 2.86 µg/mL); MIC (Staphylococcus aureus [18]): 3.68 to 6.3 µM (≈ 1.67 to 2.86 µg/mL)
Cc1ccc2c(-c3ccccc3)cc(=O)n(Cc3nnc(S)n3N)c2c1		8 to 256 (≈ 22 to 704 µM)			8 to 256 (≈ 22 to 704 µM)	8 to 256 (≈ 22 to 704 µM)		
Cc1ccc2c(c1)c(-c1ccccc1)cc(=O)n2Cc1nnc(S)n1N		8 to 256 (≈ 22 to 704 µM)			8 to 256 (≈ 22 to 704 µM)	8 to 256 (≈ 22 to 704 µM)		
Nn1c(S)nnc1Cn1c(=O)cc(-c2ccccc2)c2ccccc21		8 to 256 (≈ 22.9 to 733 µM)			8 to 256 (≈ 22.9 to 733 µM)	8 to 256 (≈ 22.9 to 733 µM)		
OC(Cn1cncn1)(Cn1cncn1)c1ccc(F)cc1F [FLUCONAZOLE]								zone of inhibition at 100 µg/mL (Aspergillus fumigatus): 26 mm; zone of inhibition at 100 µg/mL (Aspergillus niger): 29 mm
CCn1cc(C(=O)O)c(=O)c2cc(F)c(N3CCN(Cn4nc(N5CCN(c6ccc([N+](=O)[O-])cc6)CC5)n(Cc5ccccc5)c4=O)CC3)cc21	0.03 to 0.99 (≈ 0.0421 to 1.39 µM)	0.03 to 0.99 (≈ 0.0421 to 1.39 µM)	0.03 to 0.99 (≈ 0.0421 to 1.39 µM)	0.03 to 0.99 (≈ 0.0421 to 1.39 µM)	0.03 to 0.99 (≈ 0.0421 to 1.39 µM)	0.03 to 0.99 (≈ 0.0421 to 1.39 µM)	0.03 to 0.99 (≈ 0.0421 to 1.39 µM)	
O=C(O)c1cn(C2CC2)c2cc(N3CCNCC3)c(F)cc2c1=O [CIPROFLOXACIN]								MIC (Staphylococcus aureus [19]): 0.25 to 8 µg/mL (≈ 0.754 to 24.1 µM); MIC (Escherichia coli [20]): 0.25 to 8 µg/mL (≈ 0.754 to 24.1 µM); zone of inhibition at 100 µg/mL [21]: 23 to 29 mm; zone of inhibition at 100 µg/mL (Pseudomonas aeruginosa [22]): 23 to 29 mm; zone of inhibition at 100 µg/mL (Bacillus cereus [23]): 23 to 29 mm; zone of inhibition at 100 µg/mL (Escherichia coli [24]): 23 to 29 mm
CC1(C)S[C@@H]2[C@H](NC(=O)[C@H](N)c3ccccc3)C(=O)N2[C@H]1C(=O)O [AMPICILLIN]	10 to 128 (≈ 28.6 to 366 µM)	10 to 128 (≈ 28.6 to 366 µM)	10 to 128 (≈ 28.6 to 366 µM)	10 to 128 (≈ 28.6 to 366 µM)	10 to 128 (≈ 28.6 to 366 µM)	10 to 128 (≈ 28.6 to 366 µM)	10 to 128 (≈ 28.6 to 366 µM)	
COc1cccc2c(-c3ccccc3)cc(=O)n(Cc3nnc(S)n3N)c12		8 to 256 (≈ 21.1 to 675 µM)			8 to 256 (≈ 21.1 to 675 µM)	8 to 256 (≈ 21.1 to 675 µM)		
COc1ccc2c(-c3ccccc3)cc(=O)n(Cc3nnc(S)n3N)c2c1		8 to 256 (≈ 21.1 to 675 µM)			8 to 256 (≈ 21.1 to 675 µM)	8 to 256 (≈ 21.1 to 675 µM)		
CCn1c(N2CCN(c3ccc([N+](=O)[O-])cc3)CC2)nn(CN2CCN(c3cc4c(cc3F)c(=O)c(C(=O)O)cn4CC)CC2)c1=S	0.03 to 0.99 (≈ 0.0451 to 1.49 µM)	0.03 to 0.99 (≈ 0.0451 to 1.49 µM)	0.03 to 0.99 (≈ 0.0451 to 1.49 µM)	0.03 to 0.99 (≈ 0.0451 to 1.49 µM)	0.03 to 0.99 (≈ 0.0451 to 1.49 µM)	0.03 to 0.99 (≈ 0.0451 to 1.49 µM)	0.03 to 0.99 (≈ 0.0451 to 1.49 µM)	
COc1ccc2c(c1)c(-c1ccccc1)cc(=O)n2Cc1nnc(S)n1N		8 to 256 (≈ 21.1 to 675 µM)			8 to 256 (≈ 21.1 to 675 µM)	8 to 256 (≈ 21.1 to 675 µM)		
CCn1cc(C(=O)O)c(=O)c2cc(F)c(N3CCN(Cn4nc(N5CCN(c6ccc([N+](=O)[O-])cc6)CC5)n(Cc5ccccc5)c4=S)CC3)cc21	0.03 to 0.99 (≈ 0.0412 to 1.36 µM)	0.03 to 0.99 (≈ 0.0412 to 1.36 µM)	0.03 to 0.99 (≈ 0.0412 to 1.36 µM)	0.03 to 0.99 (≈ 0.0412 to 1.36 µM)	0.03 to 0.99 (≈ 0.0412 to 1.36 µM)	0.03 to 0.99 (≈ 0.0412 to 1.36 µM)	0.03 to 0.99 (≈ 0.0412 to 1.36 µM)	
